For the compound `CC(=O)Oc1ccc(S(=O)(=O)ON=C2c3ccccc3-c3ccccc32)cc1`, the melting point was 167 to 168 °C. Take `CC(Cc1ccc(OCCCCCCCCCCCO)cc1)NCC(O)c1cccc(C(F)(F)F)c1` (stereo not drawn): the melting point lay in the range of 45 to 50 °C. The result for `COC(=O)c1c(-c2cc(C)c(O)c(C)c2)c(C)n2c1-c1cc(OC)c(OC)cc1CC2C` (racemic) reads 177 to 179 °C; that for `O=C(NC1CCC(CCN2CCC(c3cccc4c3CCO4)CC2)CC1)C1CC1(F)F` (stereo not drawn), 199 °C. Take `CC(C)(C)c1ccc(/C=C/C(=O)Nc2ccc3c(ccn3CCO)c2)cc1`: the melting point amounted to 182 °C. For `FC(F)(F)Oc1ccc2nc(-c3ccccc3)[nH]c2c1`, the melting point lay within 208 to 210 °C. Compound `CCOC(=O)COc1ccc(SCc2cccc3[nH]c(-c4ccc(C(F)(F)F)cc4)cc23)cc1C` gave a melting point of 85 to 88 °C. To `CCOC(=O)CC(c1ccccc1)N(N)C(=O)c1cc(C(=O)OCc2ccccc2)ccc1OCCOC` (racemic) belongs 139 to 140 °C. The compound `CC1(C)CC(=S)Nc2ccc(-c3cccc(F)c3)cc21` yielded a melting point of 209 to 211 °C. Take `O=C(c1ccc(Cl)cc1)C(Cn1cncn1)c1ccc(Cl)cc1` (stereo not drawn): the melting point lay in the range of 126 to 128 °C. The result for `NC(=O)Cc1nc(C(=O)c2ccc(F)cc2)no1` reads 197 to 199 °C.

In the case of `O=C(CCCCN1CCC(Cc2ccccc2)CC1)c1ccc2c(c1)-c1ccc(C(=O)CCCCN3CCC(Cc4ccccc4)CC3)c3cccc-2c13`, the melting point lay within 126 to 128 °C.

In turn, `S=c1c2c(c3cccnc3n1-c1ccccc1)OCC2` displayed a melting point of 242 to 244 °C. Turning to `CCC1CCCCN1CCC(=O)N1c2ccccc2NC(=O)c2ccccc21` (stereo not drawn), the melting point was 147 to 148 °C. The compound `CCOC(=O)CCN1CCN(CC=CC(=O)Nc2cc3c(Nc4ccc(F)c(Cl)c4)ncnc3cc2OCC2CC2)CC1` showed a melting point of 183 to 185 °C. To `COC(=O)c1cc2ccc(C(=O)O)cc2[nH]1` belongs 270 to 272 °C; to `O=C(O)COc1cccc2c1CCc1sc(S(=O)(=O)C(c3ccccc3F)c3ccccc3F)nc1-2`, 204 to 208 °C; to `CCOC(=O)C1=C(COCC(C)N=[N+]=[N-])NC(C)=C(C(=O)OC)C1` (stereo not drawn), 115 °C. To `COC(=O)C(C)(C)Cc1c(C(=O)C2CC2)c2cc(OCc3ccc4ccccc4n3)c(C(=O)C3CC3)cc2n1Cc1ccc(Cl)cc1` belongs 166 to 167 °C; to `CC(C#N)N1CCC(C(=O)c2ccc(F)cc2)CC1` (stereo not drawn), 127 °C. To `CC12CC(=O)C3C(CCC4CC(O)CCC43C)C1CCC2C(=O)CCOC(=O)CCl` (stereo not drawn) belongs 95 to 97 °C.

`COc1ccc(C(=O)CC2CSCCC2=O)cc1` (stereo not drawn): the melting point is 123 to 125 °C. To `CCn1ncc2c(NCc3ccccc3)c3ccc(O)cc3nc21` belongs 252 to 254 °C.

The compound `CC(C#N)c1nc(O)n[nH]1` (stereo not drawn) gave a melting point of 182 to 184 °C. `CCCCCCCCc1ccc(N(c2ccc(CCCCCCCC)cc2)C2(c3ccc(N(CC)CC)cc3)OC(=O)c3nccnc32)cc1` (stereo not drawn) displayed a melting point of 180 to 181 °C. `CN(C)C(=O)c1cc2ccc3c(c2cc1Cn1cncn1)C(C)(C)C(=O)O3`: the melting point is 172 to 173 °C.

Compound `COc1cc(N)c2nc(C)cc(C)c2c1OC` gave a melting point of 108 to 110 °C. To `COc1ccc(C(=O)Nc2ccccc2)cc1NCc1cccc(C#N)c1` belongs 172 to 174 °C; to `Cc1cccc(NC(=O)NCC(=O)N(CC(=O)OCC(F)(F)F)c2ccccc2)c1`, 172 °C; to `CC(C)(C)NCC(O)COc1ccc2c(=O)cc(-c3ccc(OCc4ccccc4)c(OCc4ccccc4)c3)oc2c1` (stereo not drawn), 159 to 161 °C.

As for `COC1CC(NC(=O)C(F)(F)F)C(C)(O)C(C)O1` (stereo not drawn), the melting point lay in the range of 133 to 134 °C. `C=CCNC(=O)N1CCC1c1ccccc1F` (stereo not drawn) showed a melting point of 119 to 120 °C. For the compound `O=C(Nc1ccc(N2CCCCC2)cc1)N(C[C@H]1CC[C@H](CN(C(=O)Nc2ccc(N3CCCCC3)cc2)C2CCCCC2)CC1)C1CCCCC1`, the melting point was 174 to 178 °C. `O=C(c1ccc(O)cc1)C12CC3CC(C1)CC(C(=O)c1ccc(O)cc1)(C3)C2`: the melting point was 208 to 209 °C. To `Nc1ccccc1-c1ccc(Br)cc1N` belongs 61 to 62 °C. To `CN1CCN(CCSc2nc3ccccc3[nH]2)CC1` belongs 93 to 95 °C. The compound `CS(=O)(=O)c1ccc(C(CC2CCCC2)c2nc(Br)c(C(=O)C3CC3)[nH]2)cc1` (stereo not drawn) showed a melting point of 160 to 161 °C. For the compound `CC1Sc2c(C(=O)O)c(=O)c3cc(Cl)c(N4CCN(C)CC4)cc3n21` (stereo not drawn), the melting point is 250 to 255 °C. For the compound `CCCCNCc1cc(N)c(Cc2ccccc2)c(S(N)(=O)=O)c1`, the melting point was in the range of 141 to 143 °C. Compound `CN1CC2(COc3cc4c(cc32)OCO4)c2c(Br)cccc21` (stereo not drawn) yielded a melting point of 155 to 157 °C. `NC(=O)c1ccccc1-c1cc([N+](=O)[O-])ccc1-c1ccc([N+](=O)[O-])cc1` yielded a melting point of 242 to 244 °C. As to `COC(=O)C=Cc1ccc(-c2ccccc2)cc1`, the melting point was in the range of 144 to 147 °C. As to `CC1(C)C2CC3=C(CCC(=O)O3)C1C2` (stereo not drawn), the melting point is 60 °C. To `CCN1CCCC1=NC(=O)Nc1c(C)cccc1C` belongs 120 to 122 °C; to `CCc1ccc2c(c1)C=Cc1cc(C)ccc1C2c1cn(-c2ccnc(N(C)CC(=O)Nc3nc(CC(=O)O)cs3)n2)c(=O)[nH]c1=O` (stereo not drawn), 188 °C; to `CCC1Cc2cc(N)ccc2C1=O` (stereo not drawn), 106 to 108 °C. As to `O=C(c1cccnc1)N1CCC(c2ccccc2C(F)(F)F)=N1`, the melting point lay in the range of 95 to 97 °C.

Consider `O=[N+]([O-])c1ccc(Oc2nn(Cc3ccccc3F)c3ncccc23)nc1`, for which the melting point fell in the range of 111 to 113 °C. The result for `CC(O)c1cccc([N+](=O)[O-])c1Cl` (stereo not drawn) reads 62 to 64 °C. To `CN(C)c1cc(Cl)c2c(c1)NC(=O)C(C)(c1ccccc1)C2=O` (stereo not drawn) belongs 224 to 226 °C. To `CCOC(=O)NCc1cccc(-c2ccnc3c(C#N)cnn23)c1` belongs 140 to 142 °C. `CC(C)(C)OC(=O)N1CCC(Sc2cc(C(C)(C)C)c(O)c(C(C)(C)C)c2)CC1` registered a melting point of 151 to 152 °C. Compound `OC1CCC(n2cnc3cc(Cl)c(Cl)cc32)C1O` (stereo not drawn) yielded a melting point of 180 to 182 °C. `CCOc1ccccc1-c1nc2c(C)cccc2c(=O)[nH]1` displayed a melting point of 177 to 180 °C. To `O=C(CCCC12CCC(=O)N1C(=O)CC2)OCc1ccccc1` belongs 102 to 105 °C; to `O=C(Nc1ccccc1)N1CC(Oc2cccc(C(F)(F)F)c2)C1`, 137 to 138 °C. The result for `Nc1ccccc1-c1csc2nc(C34CC5CC(CC(C5)C3)C4)cn12` reads 160 to 162 °C; that for `CCOC(=O)CNC(=O)C1=C(C(=O)Nc2ccc(Cl)cc2F)CCCC1`, 170 °C; that for `Nc1nc(N)c2c(ccc3[nH]c(-c4ccccc4)cc32)n1`, 322 to 323 °C. The compound `CCCN1N=C2C(=Cc3ccc(Cl)cc3)CS(=O)(=O)CC2C1c1ccc(Cl)cc1` (stereo not drawn) gave a melting point of 208 to 210 °C. With `NC(=O)c1ccnc(Cl)n1`, the melting point was 152 to 154 °C. `CCCCCCCOc1c(OC)cc(N)c2nccc(C)c12` registered a melting point of 68 to 70 °C.

Consider `O=C(O)c1cccc(-c2cccc(OCc3ccc(Cl)cc3Cl)n2)c1`, for which the melting point was in the range of 186 to 187 °C. `CC(=O)OC[C@H](c1ccccc1)N1C(=O)C=CC1=O`: the melting point is 131 to 132 °C. The result for `CCCCCCCNC(=O)N(C)c1cccc(-c2ccc(CCC(=O)O)cn2)c1` reads 118 °C; that for `CC(=O)OCC1OC(n2c(Cl)nc3cc(Cl)c(Cl)cc32)C(OC(C)=O)C1OC(C)=O` (stereo not drawn), 145 to 146 °C; that for `CC(C)Nc1nc(-n2cc(C(=O)O)c(=O)c3cc(F)c(N4CC(N)C4)c(Cl)c32)c(F)cc1F`, 220 to 223 °C.

`COc1ccc(-c2nc3ccc(C(=O)O)cc3nc2-c2ccc(OC)cc2)cc1` displayed a melting point of 284 to 285 °C. The result for `O=C(Nc1ccc(C(=O)N2Cc3cccn3Cc3ccccc32)cc1)c1ccccc1F` reads 257 to 260 °C; that for `O=C(Nc1ccc2oc3c(c2c1)CCCC3)c1ccccc1`, 178 to 180 °C.

In turn, `COc1cc2c(cc1CCCCO)oc1cc(-c3ccccc3Cl)c3c(c12)C(=O)NC3=O` registered a melting point of 158 to 162 °C.

`N#CC1CCN(C(=O)c2ccc3nonc3c2)CC1` displayed a melting point of 104 to 107 °C.

Compound `COc1ccc(-c2cn3c(n2)CCC3)cc1` returned a melting point of 116 to 118 °C. To `CN1c2ccc(-c3ccccc3)cc2S(=O)(=O)c2cc(-c3ccccc3)ccc21` belongs 242 to 245 °C.

`COc1ccc(C#N)c2c1OC1(COCC1OC)C2` (stereo not drawn) yielded a melting point of 151 to 156 °C. Consider `CC(C)(C)NC(=O)c1ccc(C(O)CCCc2cn([Si](C)(C)C)cn2)cc1` (stereo not drawn), for which the melting point was in the range of 141 to 143 °C.

Take `COc1ccc(Cc2cc(O)ccc2OC)nc1`: the melting point lay in the range of 115 to 122 °C. As for `COC(=O)Cc1ccc2oc(-c3ccc(OC)c(OC)c3)c(SC)c2c1`, the melting point was determined as 91 °C. The result for `O=C(NCCCCCCCNC(=O)c1ccc(OC2CCCCC2)cc1)c1ccc(OC2CCCCC2)cc1` reads 144 to 145 °C; that for `CC(=O)c1c(-c2ccc(F)cc2)nc2occn12`, 173 °C; that for `O=C(O)C1=Cc2cc(-c3ccccc3)ccc2OC1C(F)(F)F` (stereo not drawn), 197 to 198 °C. To `CC(C(=O)O)c1ccc2onc(-c3ccc(Cl)cc3)c2c1` (stereo not drawn) belongs 137 to 139 °C; to `CCOC(=O)Cc1n[nH]c(=O)c2c(C)cccc12`, 197 to 199 °C.

With `COc1cc(NC(C)=O)c(Cl)c(C(F)(F)F)c1Cl`, the melting point is 143 to 144 °C. To `CC/C=C/c1nc(Cl)c(C=O)n1Cc1ccc(-c2ccccc2C(=O)O)cc1` belongs 164 to 166 °C; to `O=C1C2CCCCC2C(=O)N1c1ccc(Cl)cc1F` (stereo not drawn), 94 to 95.5 °C. The result for `CCCCCN(CCC12CC3CC(CC(C3)C1)C2)C(=O)NCC(CC)Cc1ccncc1` (stereo not drawn) reads 72 to 77 °C; that for `CCc1cnc2c(C#N)cnn2c1-c1cccc(C(F)(F)F)c1`, 135 to 137 °C.

(Values after a melting point compilation (Tetko et al.; mined from patent text by program, amines drawn as free bases though some values may be those of a salt).)
